Reference: ChEMBL document CHEMBL1828521, “New azole antifungal agents with novel modes of action: synthesis and biological studies of new tridentate ligands based on pyrazole and triazole” (2011)
The source made the active and inactive calls. The rule behind the calls is not given here.

How the values were obtained:
Saccharomyces cerevisiae [1] = test: Antifungal activity against Saccharomyces cerevisiae BY4741 assessed as reduction in cell growth at 1 mM; type: functional, organism-based
Saccharomyces cerevisiae [2] = test: Antifungal activity against Saccharomyces cerevisiae BY4741 assessed as increase in unbudded cells at 1 mM (reference value: 38.5%); type: functional
Saccharomyces cerevisiae [3] = test: Antifungal activity against Saccharomyces cerevisiae BY4741 assessed as small budded cells at 1 mM (reference value: 22%); type: functional
Saccharomyces cerevisiae [4] = test: Antifungal activity against Saccharomyces cerevisiae BY4741 assessed as large budded cells at 1 mM (reference value: 39.4%); type: functional
Saccharomyces cerevisiae [5] = test: Cell cycle arrest in Saccharomyces cerevisiae BY4741 assessed as accumulation of cells with […] DNA content at G1 phase at 290 uM for 8 hrs by flow cytometric analysis; type: functional, organism-based
Saccharomyces cerevisiae [6] = test: Cell cycle arrest at G1-phase in Saccharomyces cerevisiae BY4741 assessed as accumulation of […] DNA content at 290 uM after 180 mins by flow cytometric analysis; type: functional, organism-based
Saccharomyces cerevisiae [7] = test: Antifungal activity against wild-type Saccharomyces cerevisiae BY4741 at 1.4 mM by serial dilution method; type: functional, organism-based
Saccharomyces cerevisiae [8] = test: Antifungal activity against xrs2-deficient Saccharomyces cerevisiae BY4741 at 1 to 1.4 mM after 3 days by serial dilution method; type: functional, organism-based
Saccharomyces cerevisiae [9] = test: Antifungal activity against top3-deficient Saccharomyces cerevisiae BY4741 at 1 to 1.4 mM after 3 days by serial dilution method; type: functional, organism-based
Saccharomyces cerevisiae [10] = test: Antifungal activity against ski2-deficient Saccharomyces cerevisiae BY4741 at 1 to 1.4 mM after 3 days by serial dilution method; type: functional, organism-based
Saccharomyces cerevisiae [11] = test: Antifungal activity against Saccharomyces cerevisiae BY4741 expressing Rad52-GFP assessed as appearance of Rad52 foci by epifluorescence microscopy; type: functional, organism-based
Saccharomyces cerevisiae [12] = test: Antifungal activity against Saccharomyces cerevisiae BY4741 expressing Rad52-GFP assessed as increase in appearance of Rad52 foci in G1 phase by epifluorescence microscopy; type: functional, organism-based
Saccharomyces cerevisiae [13] = test: Antifungal activity against Saccharomyces cerevisiae BY4741 expressing Rad52-GFP assessed as increase in appearance of Rad52 foci in S-phase by epifluorescence microscopy; type: functional, organism-based
Saccharomyces cerevisiae [14] = test: Antifungal activity against Saccharomyces cerevisiae BY4741 expressing Rad52-GFP assessed as increase in appearance of Rad52 foci in G2/M phase by epifluorescence microscopy; type: functional, organism-based
Saccharomyces cerevisiae [15] = test: Antifungal activity against Saccharomyces cerevisiae BY4741 assessed as inhibition of replication at 1 mM; type: functional, organism-based
Saccharomyces cerevisiae [16] = test: Induction of cell cycle arrest at G1-phase in Saccharomyces cerevisiae BY4741 assessed as accumulation of 1C DNA content at 1 mM after 180 mins by flow cytometric analysis; type: functional, organism-based
Saccharomyces cerevisiae [17] = test: Induction of cell cycle arrest at G1-phase in Saccharomyces cerevisiae BY4741 at 1 mM after 180 mins by flow cytometric analysis; type: functional, organism-based
Saccharomyces cerevisiae [18] = test: Antifungal activity against xrs2-deficient Saccharomyces cerevisiae BY4741 at 0.85 to 1.14 mM after 3 days by serial dilution method; type: functional, organism-based
Saccharomyces cerevisiae [19] = test: Antifungal activity against top3-deficient Saccharomyces cerevisiae BY4741 at 0.85 to 1.14 mM after 3 days by serial dilution method; type: functional, organism-based
Saccharomyces cerevisiae [20] = test: Antifungal activity against ski2-deficient Saccharomyces cerevisiae BY4741 at 0.85 to 1.14 mM after 3 days by serial dilution method; type: functional, organism-based
Saccharomyces cerevisiae [21] = test: Antifungal activity against PKC1-deficient Saccharomyces cerevisiae BY4741 by Haploinsufficiency-profiling assay; type: functional, organism-based
Saccharomyces cerevisiae [22] = test: Antifungal activity against wild-type Saccharomyces cerevisiae BY4741 at 1.14 mM after 3 days by serial dilution method; type: functional, organism-based

Compound: CCN(CC)CCCN(Cn1nc(C)cc1C)Cn1nc(C)cc1C
- Activity (Saccharomyces cerevisiae [1]): Active
- Activity (Saccharomyces cerevisiae [2]): 51.5%
- Activity (Saccharomyces cerevisiae [3]): 9.7%
- Activity (Saccharomyces cerevisiae [4]): 38.7%
- Activity (Saccharomyces cerevisiae [5]): Active
- Activity (Saccharomyces cerevisiae [6]): Active
- Activity (Saccharomyces cerevisiae [7]): inactive
- Activity (Saccharomyces cerevisiae [8]): Active
- Activity (Saccharomyces cerevisiae [9]): Active
- Activity (Saccharomyces cerevisiae [10]): Active
- Activity (Saccharomyces cerevisiae [11]): Active
- Activity (Saccharomyces cerevisiae [12]): Active
- Activity (Saccharomyces cerevisiae [13]): Active
- Activity (Saccharomyces cerevisiae [14]): Active

Compound: CCN(CC)CCCN(Cn1cncn1)Cn1cncn1
- Activity (Saccharomyces cerevisiae [1]): Active
- Activity (Saccharomyces cerevisiae [11]): Active
- Activity (Saccharomyces cerevisiae [12]): Active
- Activity (Saccharomyces cerevisiae [13]): Active
- Activity (Saccharomyces cerevisiae [14]): Active
- Activity (Saccharomyces cerevisiae [15]): Active
- Activity (Saccharomyces cerevisiae [16]): Active
- Activity (Saccharomyces cerevisiae [17]): Active
- Activity (Saccharomyces cerevisiae [18]): Active
- Activity (Saccharomyces cerevisiae [19]): Active
- Activity (Saccharomyces cerevisiae [20]): Active
- Activity (Saccharomyces cerevisiae [21]): Active
- Activity (Saccharomyces cerevisiae [22]): inactive

Compound: Cc1cc(C)n(CO)n1
- Activity (Saccharomyces cerevisiae [1]): Active

Compound: Cc1cc(C)[nH]n1
- Activity (Saccharomyces cerevisiae [1]): inactive
